Patent US10670605B2, “Cysteine reactive probes and uses thereof” (The Scripps Research Institute, priority 2015, dated 2020)

Columns and labels:
Assay in all cases: Competitive isoTOP-ABPP in situ (fragment-treated cells)
Assay type in all cases: cell-based
[1] = target: T1, cysteines in MDA-MB-231 and Ramos cells (Homo sapiens, UniProt P21980)
T1 sequence (P21980 1-687): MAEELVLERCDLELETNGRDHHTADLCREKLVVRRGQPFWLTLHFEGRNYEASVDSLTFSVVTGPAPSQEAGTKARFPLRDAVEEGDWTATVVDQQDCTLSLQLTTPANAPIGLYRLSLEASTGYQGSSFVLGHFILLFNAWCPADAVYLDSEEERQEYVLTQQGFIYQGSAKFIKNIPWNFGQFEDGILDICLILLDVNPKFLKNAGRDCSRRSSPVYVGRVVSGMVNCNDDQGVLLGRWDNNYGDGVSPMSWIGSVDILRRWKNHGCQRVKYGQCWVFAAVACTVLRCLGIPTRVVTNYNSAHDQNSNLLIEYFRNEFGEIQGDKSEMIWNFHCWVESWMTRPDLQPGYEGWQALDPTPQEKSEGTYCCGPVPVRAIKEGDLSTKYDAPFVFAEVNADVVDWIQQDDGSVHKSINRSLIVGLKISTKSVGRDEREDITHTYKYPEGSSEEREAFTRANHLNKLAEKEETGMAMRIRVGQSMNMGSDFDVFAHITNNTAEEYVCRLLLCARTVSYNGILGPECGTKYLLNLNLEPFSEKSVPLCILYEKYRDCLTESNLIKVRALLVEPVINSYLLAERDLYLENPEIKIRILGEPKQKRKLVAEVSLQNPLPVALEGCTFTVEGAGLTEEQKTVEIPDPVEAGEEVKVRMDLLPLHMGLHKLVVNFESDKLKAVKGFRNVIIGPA

[2] = target: T2, cysteines in MDA-MB-231 and Ramos cells (Homo sapiens, UniProt Q9NQW6)
T2 sequence (Q9NQW6 1-1124): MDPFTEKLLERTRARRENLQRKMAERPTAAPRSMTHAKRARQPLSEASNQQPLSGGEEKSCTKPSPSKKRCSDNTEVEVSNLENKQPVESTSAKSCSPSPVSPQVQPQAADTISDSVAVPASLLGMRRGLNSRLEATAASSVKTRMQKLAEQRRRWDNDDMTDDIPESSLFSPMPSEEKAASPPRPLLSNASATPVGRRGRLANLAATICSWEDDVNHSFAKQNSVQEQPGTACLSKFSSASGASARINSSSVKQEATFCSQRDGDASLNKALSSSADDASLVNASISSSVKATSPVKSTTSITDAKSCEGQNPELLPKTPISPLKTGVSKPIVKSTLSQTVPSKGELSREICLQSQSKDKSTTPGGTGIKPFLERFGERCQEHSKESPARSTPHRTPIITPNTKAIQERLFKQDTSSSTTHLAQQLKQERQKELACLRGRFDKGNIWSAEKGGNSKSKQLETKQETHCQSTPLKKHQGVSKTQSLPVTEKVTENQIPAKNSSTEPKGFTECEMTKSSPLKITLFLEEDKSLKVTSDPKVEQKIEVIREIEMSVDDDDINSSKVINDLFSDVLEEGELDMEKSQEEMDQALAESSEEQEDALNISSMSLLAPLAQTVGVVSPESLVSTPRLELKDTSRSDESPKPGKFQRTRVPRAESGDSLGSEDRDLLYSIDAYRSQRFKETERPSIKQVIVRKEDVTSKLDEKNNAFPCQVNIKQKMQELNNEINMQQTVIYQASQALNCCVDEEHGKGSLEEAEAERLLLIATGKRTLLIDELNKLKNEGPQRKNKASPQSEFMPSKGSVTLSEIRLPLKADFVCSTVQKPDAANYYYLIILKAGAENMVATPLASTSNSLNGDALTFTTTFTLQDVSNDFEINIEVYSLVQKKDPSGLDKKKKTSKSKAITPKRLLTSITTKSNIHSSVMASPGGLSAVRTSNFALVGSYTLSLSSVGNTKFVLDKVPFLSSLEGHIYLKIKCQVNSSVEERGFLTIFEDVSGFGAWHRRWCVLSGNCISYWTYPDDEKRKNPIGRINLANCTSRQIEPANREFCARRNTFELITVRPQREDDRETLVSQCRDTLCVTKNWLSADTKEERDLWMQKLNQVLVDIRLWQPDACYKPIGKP

[3] = target: T3, cysteines in MDA-MB-231 and Ramos cells (Homo sapiens, UniProt Q96AB3); details: for isoTOP-ABPP ratio Q96AB3_C114: 200 μM, insitu, 231
T3 sequence (Q96AB3 1-205): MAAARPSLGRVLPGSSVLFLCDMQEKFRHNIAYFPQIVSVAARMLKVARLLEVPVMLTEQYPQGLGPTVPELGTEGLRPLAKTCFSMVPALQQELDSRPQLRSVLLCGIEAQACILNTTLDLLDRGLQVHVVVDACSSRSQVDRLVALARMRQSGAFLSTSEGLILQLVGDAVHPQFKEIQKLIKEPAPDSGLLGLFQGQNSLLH

[4] = target: T4, cysteines in MDA-MB-231 and Ramos cells (Homo sapiens, UniProt O95229)
T4 sequence (O95229 1-277): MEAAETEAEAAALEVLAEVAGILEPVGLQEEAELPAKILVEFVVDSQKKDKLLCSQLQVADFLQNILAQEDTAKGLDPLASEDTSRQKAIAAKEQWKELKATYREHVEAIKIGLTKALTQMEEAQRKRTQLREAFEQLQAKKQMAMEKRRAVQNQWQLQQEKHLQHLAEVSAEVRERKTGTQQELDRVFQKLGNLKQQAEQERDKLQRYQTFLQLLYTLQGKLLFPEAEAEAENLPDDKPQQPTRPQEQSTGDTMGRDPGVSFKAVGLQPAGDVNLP

[5] = target: cysteines in MDA-MB-231 and Ramos cells (Homo sapiens, UniProt Q93009); details: for isoTOP-ABPP ratio Q93009_C223: 200 μM, insitu
cysteines in MDA-MB-231 and Ramos cells (Homo sapiens, UniProt Q93009), sequence (Q93009 whole entry): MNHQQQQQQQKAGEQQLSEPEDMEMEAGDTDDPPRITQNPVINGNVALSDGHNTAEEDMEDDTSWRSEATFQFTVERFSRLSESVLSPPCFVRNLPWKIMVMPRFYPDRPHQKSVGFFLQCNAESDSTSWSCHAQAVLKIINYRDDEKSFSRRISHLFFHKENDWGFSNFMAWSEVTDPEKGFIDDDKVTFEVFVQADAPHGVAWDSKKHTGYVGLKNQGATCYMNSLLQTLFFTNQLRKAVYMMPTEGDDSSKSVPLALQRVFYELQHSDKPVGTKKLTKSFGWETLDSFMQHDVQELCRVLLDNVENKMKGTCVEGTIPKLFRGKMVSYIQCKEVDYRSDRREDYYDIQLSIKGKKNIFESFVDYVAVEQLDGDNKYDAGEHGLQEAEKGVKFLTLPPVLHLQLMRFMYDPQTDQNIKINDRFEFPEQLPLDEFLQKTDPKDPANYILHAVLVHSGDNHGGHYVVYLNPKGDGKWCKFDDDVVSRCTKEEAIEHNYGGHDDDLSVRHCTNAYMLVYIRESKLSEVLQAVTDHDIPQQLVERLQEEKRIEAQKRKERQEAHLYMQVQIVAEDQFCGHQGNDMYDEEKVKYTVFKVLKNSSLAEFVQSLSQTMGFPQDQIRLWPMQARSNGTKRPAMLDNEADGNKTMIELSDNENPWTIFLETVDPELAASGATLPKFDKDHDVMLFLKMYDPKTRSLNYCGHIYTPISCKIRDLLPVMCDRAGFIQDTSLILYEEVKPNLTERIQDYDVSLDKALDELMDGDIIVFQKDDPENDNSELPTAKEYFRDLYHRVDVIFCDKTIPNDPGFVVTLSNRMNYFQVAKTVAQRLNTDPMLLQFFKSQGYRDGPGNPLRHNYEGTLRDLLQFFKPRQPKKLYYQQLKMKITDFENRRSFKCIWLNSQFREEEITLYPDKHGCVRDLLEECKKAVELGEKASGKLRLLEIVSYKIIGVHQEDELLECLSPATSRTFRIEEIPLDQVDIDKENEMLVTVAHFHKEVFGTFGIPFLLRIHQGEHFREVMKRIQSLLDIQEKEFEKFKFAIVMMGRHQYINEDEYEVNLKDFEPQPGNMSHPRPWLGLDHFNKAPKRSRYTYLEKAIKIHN

[6] = target: T5, cysteines in MDA-MB-231 and Ramos cells (Homo sapiens, UniProt Q13418)
T5 sequence (Q13418 1-452): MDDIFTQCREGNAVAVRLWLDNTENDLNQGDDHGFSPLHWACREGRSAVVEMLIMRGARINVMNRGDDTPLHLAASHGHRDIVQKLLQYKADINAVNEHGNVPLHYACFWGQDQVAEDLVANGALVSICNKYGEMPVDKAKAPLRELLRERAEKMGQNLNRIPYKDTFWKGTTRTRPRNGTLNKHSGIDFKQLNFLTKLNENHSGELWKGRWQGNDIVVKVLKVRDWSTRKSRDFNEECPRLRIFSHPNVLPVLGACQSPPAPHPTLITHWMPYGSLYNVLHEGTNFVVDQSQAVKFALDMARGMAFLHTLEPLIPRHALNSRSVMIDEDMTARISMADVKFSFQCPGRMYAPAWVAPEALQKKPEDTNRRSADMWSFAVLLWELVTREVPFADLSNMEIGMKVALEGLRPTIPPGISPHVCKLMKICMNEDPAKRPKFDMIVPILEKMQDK

Structure (SMILES) | isoTOP-ABPP ratio P21980_C277 ([1]; 200 μM, insitu, 231) | isoTOP-ABPP ratio Q9NQW6_C712 ([2]; 200 μM, insitu, 231) | isoTOP-ABPP ratio Q96AB3_C114 [3] | isoTOP-ABPP ratio O95229_C54 ([4]; 200 μM, insitu, 231) | isoTOP-ABPP ratio Q93009_C223 [5]; 231 | isoTOP-ABPP ratio Q13418_C346 ([6]; 200 μM, insitu, 231) | also measured
COc1ccccc1OCCNC(=O)CCl [compound 28] | 0.4 | 0.9 | 0.8 | 0.7 | 1.0 | – | –
Cc1ccc(C=C(C#N)C(=O)NCCN2CCOCC2)cc1 [compound 41] | 0.6 | 0.7 | 0.7 | 0.6 | – | 0.6 | –
O=C(CCl)NC(=O)NC12CC3CC(CC(C3)C1)C2 [compound 12] | 0.3 | 16.7 | 1.6 | 20.0 | 3.1 | 0.6 | –
O=C(CCl)NCCc1c[nH]c2ccccc12 [compound 13] | 0.8 | 1.3 | 2.4 | 0.8 | – | 0.7 | isoTOP-ABPP ratio O95229_C54 ([4]; 200 μM, insitu, ramos): 1.4; isoTOP-ABPP ratio Q13418_C346 ([6]; 200 μM, insitu, ramos): 2.1; isoTOP-ABPP ratio Q93009_C223 ([5]; ramos): 1.3
O=C(CCl)N1CCC(Cc2ccccc2)CC1 [compound 9] | – | – | – | – | – | – | isoTOP-ABPP reactivity P21980_C277 TGM2 ([1]; 200 μM, insitu, 231): 2.3; isoTOP-ABPP reactivity Q9NQW6_C712 ANLN ([2]; 200 μM, insitu, 231): 3.1; isoTOP-ABPP reactivity O95229_C54 ZWINT ([4]; 200 μM, insitu, 231): 3.7; isoTOP-ABPP reactivity Q13418_C346 ILK ([6]; 200 μM, insitu, 231): 2.7
COc1ccc(C2CC(c3cccs3)=NN2C(=O)CCl)cc1 (centres unmarked) [compound 4] | – | – | – | – | – | – | isoTOP-ABPP reactivity P21980_C277 TGM2 ([1]; 100 μM in situ 231): 0.5; isoTOP-ABPP reactivity Q9NQW6_C712 ANLN ([2]; 100 μM in situ 231): 4.1; isoTOP-ABPP reactivity Q96AB3_C114 ISOC2 ([3]; 100 μM in situ 231): 0.8; isoTOP-ABPP reactivity O95229_C54 ZWINT ([4]; 100 μM in situ 231): 12.4; isoTOP-ABPP reactivity Q13418_C346 ILK ([6]; 100 μM in situ 231): 0.8; isoTOP-ABPP reactivity Q93009_C223 USP7 ([5]; 100 μM in situ 231): 6.8
O=C(CCl)NC12CC3CC(CC(C3)C1)C2 [compound 21] | 0.7 | – | 4.9 | 0.8 | 1.8 | 0.5 | –
O=C(CCl)Nc1cccc2ncccc12 [compound 51] | 1.0 | – | 0.8 | 1.0 | 1.0 | 0.8 | –
